In this assay the target is T1, CDK8 (CDK8/CycC) (Homo sapiens, UniProt P49336).
T1 construct: purchased Invitrogen PV4402
T1 sequence (P49336 whole entry): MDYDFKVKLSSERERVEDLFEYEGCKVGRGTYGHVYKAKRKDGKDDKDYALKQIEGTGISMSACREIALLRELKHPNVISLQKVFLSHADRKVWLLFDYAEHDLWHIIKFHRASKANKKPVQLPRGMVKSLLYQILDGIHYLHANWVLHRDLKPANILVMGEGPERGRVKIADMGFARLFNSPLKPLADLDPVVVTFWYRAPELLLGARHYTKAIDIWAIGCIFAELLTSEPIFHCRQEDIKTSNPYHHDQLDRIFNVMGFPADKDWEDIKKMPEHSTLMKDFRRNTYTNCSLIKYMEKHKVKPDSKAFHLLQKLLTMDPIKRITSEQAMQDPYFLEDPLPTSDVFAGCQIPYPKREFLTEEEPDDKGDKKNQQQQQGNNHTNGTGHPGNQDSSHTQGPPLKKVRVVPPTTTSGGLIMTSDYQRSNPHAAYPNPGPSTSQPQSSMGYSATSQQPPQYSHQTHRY
T1 sequence (P24863 whole entry partner): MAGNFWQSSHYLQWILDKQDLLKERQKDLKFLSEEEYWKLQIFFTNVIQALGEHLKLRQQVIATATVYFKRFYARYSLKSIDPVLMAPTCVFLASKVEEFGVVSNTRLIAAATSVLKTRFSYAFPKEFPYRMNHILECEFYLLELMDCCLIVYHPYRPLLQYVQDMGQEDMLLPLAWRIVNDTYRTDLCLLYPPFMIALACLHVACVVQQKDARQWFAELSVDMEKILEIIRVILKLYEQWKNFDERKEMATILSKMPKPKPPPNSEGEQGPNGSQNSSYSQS
Put plainly: FRET based Lanthascreen binding competition assay. To be noted: 5 nM CDK8/CycC, 10 nM Alexa647-Tracer, 1% DMSO, 60 min at RT; read-out: IC50 CDK8 binding. In a few lines:
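CDK8 co-expressed with CycC and labelled through biotinylated anti-His antibody and streptavidin-Eu was preincubated with compound for 20 min at RT. An Alexa647 ATP-competitive probe was then added for 60 min at RT in the dark. Probe displacement was read as loss of TR-FRET (excitation 340 nm, emission 650 nm).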
As to `COC1(C)CN(C(=O)c2ccc3cncc(-c4ccc(-c5cnn(C)c5)cc4)c3n2)C1` [Compound 149, (3-methoxy-3-methylazetidin-1-yl)(8-(4-(1-methyl-1H-pyrazol-4-yl)phenyl)-1,6-naphthyridin-2-yl)methanone], the concentration for half-maximal inhibition (IC50) is less than 10 nM.

Regarding `CC(C)(O)Cn1cc(-c2ccc(-c3cncc4ccc(N5C(=O)Cc6ccccc65)cc34)cc2)cn1` [Compound 150, 1-(4-(4-(1-(2-hydroxy-2-methylpropyl)-1H-pyrazol-4-yl)phenyl)isoquinolin-6-yl)indolin-2-one], the half-inhibitory concentration (IC50) lay in the range of 10 to 100 nM. For the compound `CC(C)(O)Cn1cc2cc(-c3cncc4ccc(NS(C)(=O)=O)cc34)ccc2n1` [Compound 151, N-(4-(2-(2-hydroxy-2-methylpropyl)-2H-indazol-5-yl)isoquinolin-6-yl)methanesulfonamide], the IC50 is less than 10 nM. Next, `Cn1cc(-c2ccc(-c3cncc4ccc(NS(=O)(=O)c5ccccc5)cc34)cc2)cn1` [Compound 152, N-{4-[4-(1-Methyl-1H-pyrazol-4-yl)-phenyl]-isoquinolin-6-yl}-benzenesulfonamide]: less than 10 nM; `COC1CN(C(=O)c2ccc3cncc(-c4ccc(-c5cnn(C(C)C)c5)cc4)c3n2)C1` [Compound 153, (8-(4-(1-isopropyl-1H-pyrazol-4-yl)phenyl)-1,6-naphthyridin-2-yl)(3-methoxyazetidin-1-yl)methanone]: less than 10 nM; `Nc1ncc(-c2ccc3c(c2)NC(=O)C3)c2cc(C(=O)N3CC(F)(F)C3)ccc12` [Compound 154, 6-(1-amino-6-(3,3-difluoroazetidine-1-carbonyl)isoquinolin-4-yl)indolin-2-one]: 10 to 100 nM. The value for `COC1CN(C(=O)c2ccc3cncc(-c4ccc5c(c4)CCC(=O)N5C)c3c2)C1` [Compound 155, 6-[6-(3-Methoxy-azetidine-1-carbonyl)-isoquinolin-4-yl]-1-methyl-3,4-dihydro-1H-quinolin-2-one] was 10 to 100 nM.

Take `COC1CN(C(=O)c2ccc3cncc(-c4ccc(-c5ccn(C)n5)cc4)c3n2)C1` [Compound 156, (3-methoxyazetidin-1-yl)(8-(4-(1-methyl-1H-pyrazol-3-yl)phenyl)-1,6-naphthyridin-2-yl)methanone]: the 50% inhibitory concentration (IC50) was in the range of 10 to 100 nM.

Consider `CC(C)S(=O)(=O)Nc1ccc2cncc(-c3ccc(-c4cnn(C)c4)cc3)c2c1` [Compound 157, Propane-2-sulfonic acid {4-[4-(1-methyl-1H-pyrazol-4-yl)-phenyl]-isoquinolin-6-yl}-amide], for which the half-maximal inhibitory concentration (IC50) was less than 10 nM. Next, `CN1C(=O)CCc2cc(-c3cncc4ccc(C(=O)N5CC(F)(F)C5)cc34)ccc21` [Compound 158, 6-[6-(3,3-Difluoro-azetidine-1-carbonyl)-isoquinolin-4-yl]-1-methyl-3,4-dihydro-1H-quinolin-2-one]: 10 to 100 nM; `COC1CN(C(=O)c2ccc3cncc(-c4ccc5c(c4)CC(=O)N5C)c3c2)C1` [Compound 159, 5-[6-(3-Methoxy-azetidine-1-carbonyl)-isoquinolin-4-yl]-1-methyl-1,3-dihydro-indol-2-one]: 10 to 100 nM; `COC1CN(C(=O)c2ccc3c(N)ncc(-c4ccc(-c5ccn(C)n5)cc4)c3n2)C1` [Compound 160, (5-amino-8-(4-(1-methyl-1H-pyrazol-3-yl)phenyl)-1,6-naphthyridin-2-yl)(3-methoxyazetidin-1-yl)methanone]: 101 to 500 nM. Turning to `COC1CN(C(=O)c2ccc3c(N)ncc(-c4ccc(-c5cnn(C(C)C)c5)cc4)c3n2)C1` [Compound 161, (5-amino-8-(4-(1-isopropyl-1H-pyrazol-4-yl)phenyl)-1,6-naphthyridin-2-yl)(3-methoxyazetidin-1-yl)methanone], the IC50 was in the range of 10 to 100 nM. Next, `Cn1cc(-c2ccc(-c3cncc4ccc(NS(=O)(=O)C5CC5)cc34)cc2)cn1` [Compound 162, Cyclopropanesulfonic acid {4-[4-(1-methyl-1H-pyrazol-4-yl)-phenyl]-isoquinolin-6-yl}-amide]: less than 10 nM. Take `CN1C(=O)Cc2ccc(-c3cncc4ccc(C(=O)N5CC(F)(F)C5)cc34)cc21` [Compound 163, 6-[6-(3,3-Difluoro-azetidine-1-carbonyl)-isoquinolin-4-yl]-1-methyl-1,3-dihydro-indol-2-one]: the half-inhibitory concentration (IC50) lay within 10 to 100 nM.

Turning to `CN1C(=O)Cc2ccc(-c3cnc(N)c4ccc(C(=O)N5CC(F)(F)C5)cc34)cc21` [Compound 164, 6-[1-Amino-6-(3,3-difluoro-azetidine-1-carbonyl)-isoquinolin-4-yl]-1-methyl-1,3-dihydro-indol-2-one], the concentration for half-maximal inhibition (IC50) is 10 to 100 nM. For the compound `COC1CN(C(=O)c2ccc3cncc(-c4ccc5c(c4)N(C)C(=O)C5)c3c2)C1` [Compound 165, 6-[6-(3-Methoxy-azetidine-1-carbonyl)-isoquinolin-4-yl]-1-methyl-1,3-dihydro-indol-2-one], the IC50 was less than 10 nM. Next, `COCCn1cc(-c2ccc(-c3cncc4ccc(NS(C)(=O)=O)cc34)cc2)cn1` [Compound 166, N-(4-(4-(1-(2-methoxyethyl)-1H-pyrazol-4-yl)phenyl)isoquinolin-6-yl)methanesulfonamide]: less than 10 nM; `COCCN(c1ccc2cncc(-c3ccc(-c4cnn(C)c4)cc3)c2c1)S(C)(=O)=O` [Compound 167, N-(2-methoxyethyl)-N-(4-(4-(1-methyl-1H-pyrazol-4-yl)phenyl)isoquinolin-6-yl)methanesulfonamide]: 101 to 500 nM. Next, `Cn1cc(-c2ccc(-c3cncc4ccc(NS(=O)(=O)C5(C)CC5)cc34)cc2)cn1` [Compound 168, 1-Methyl-cyclopropanesulfonic acid {4-[4-(1-methyl-1H-pyrazol-4-yl)-phenyl]-isoquinolin-6-yl}-amide]: less than 10 nM; `Cn1cc(-c2ccc(-c3cncc4ccc(NS(=O)(=O)N5CCC5)cc34)cc2)cn1` [Compound 169, Azetidine-1-sulfonic acid {4-[4-(1-methyl-1H-pyrazol-4-yl)-phenyl]-isoquinolin-6-yl}-amide]: less than 10 nM. For `CN1C(=O)Cc2cc(-c3cncc4ccc(C(=O)N5CC(F)(F)C5)cc34)ccc21` [Compound 170, 5-[6-(3,3-Difluoro-azetidine-1-carbonyl)-isoquinolin-4-yl]-1-methyl-1,3-dihydro-indol-2-one], the IC50 was in the range of 10 to 100 nM. Regarding `CN1C(=O)Cc2cc(-c3cnc(N)c4ccc(C(=O)N5CC(F)(F)C5)cc34)ccc21` [Compound 171, 5-[1-Amino-6-(3,3-difluoro-azetidine-1-carbonyl)-isoquinolin-4-yl]-1-methyl-1,3-dihydro-indol-2-one], the IC50 is 10 to 100 nM. On to `CN1C(=O)CCc2cc(-c3cnc(N)c4ccc(C(=O)N5CC(F)(F)C5)cc34)ccc21` [Compound 172, 6-[1-Amino-6-(3,3-difluoro-azetidine-1-carbonyl)-isoquinolin-4-yl]-1-methyl-3,4-dihydro-1H-quinolin-2-one], for which the IC50 is 101 to 500 nM. Next, `COC1CN(C(=O)c2ccc3c(N)ncc(-c4ccc5c(c4)N(C)C(=O)C5)c3c2)C1` [Compound 173, 6-[1-Amino-6-(3-methoxy-azetidine-1-carbonyl)-isoquinolin-4-yl]-1-methyl-1,3-dihydro-indol-2-one]: 10 to 100 nM. For the compound `Cc1nc(-c2ccc(-c3cncc4ccc(C(=O)N5CC(F)(F)C5)cc34)cc2)cn1C` [Compound 175, (3,3-Difluoro-azetidin-1-yl)-{4-[4-(1,2-dimethyl-1H-imidazol-4-yl)-phenyl]-isoquinolin-6-yl}-methanone], the concentration for half-maximal inhibition (IC50) was in the range of 10 to 100 nM.

`Cc1nc(-c2ccc(-c3cnc(N)c4ccc(C(=O)N5CC(F)(F)C5)cc34)cc2)cn1C` [Compound 176, {1-Amino-4-[4-(1,2-dimethyl-1H-imidazol-4-yl)-phenyl]-isoquinolin-6-yl}-(3,3-difluoro-azetidin-1-yl)-methanone]: the IC50 lay within 10 to 100 nM.

On to `COC1CN(C(=O)c2ccc3c(N)ncc(-c4ccc5c(c4)CC(=O)N5C)c3c2)C1` [Compound 177, 5-[1-Amino-6-(3-methoxy-azetidine-1-carbonyl)-isoquinolin-4-yl]-1-methyl-1,3-dihydro-indol-2-one], for which the IC50 is 10 to 100 nM. As for `COC1CN(C(=O)c2ccc3c(N)ncc(-c4ccc5c(c4)CCC(=O)N5C)c3c2)C1` [Compound 178, 6-(1-amino-6-(3-methoxyazetidine-1-carbonyl)isoquinolin-4-yl)-1-methyl-3,4-dihydroquinolin-2(1H)-one], the 50% inhibitory concentration (IC50) was in the range of 101 to 500 nM. In the case of `Cn1cc(-c2ccc(-c3cncc4ccc(C(=O)N5CC(C)(F)C5)nc34)cc2)cn1` [Compound 180, (3-fluoro-3-methylazetidin-1-yl)(8-(4-(1-methyl-1H-pyrazol-4-yl)phenyl)-1,6-naphthyridin-2-yl)methanone], the IC50 is less than 10 nM. `Cn1cc(-c2ccc(-c3cncc4ccc(C(=O)N5CCC5)cc34)cc2)cn1` [Compound 181, azetidin-1-yl(4-(4-(1-methyl-1H-pyrazol-4-yl)phenyl)isoquinolin-6-yl)methanone]: the 50% inhibitory concentration (IC50) is less than 10 nM. Next, `COC1(C)CN(C(=O)c2ccc3cncc(-c4ccc(-c5cnn(C)c5)cc4)c3c2)C1` [Compound 185]: 10 to 100 nM; `Cn1cc(-c2ccc(-c3cncc4ccc(C(=O)N5CC(C)(F)C5)cc34)cc2)cn1` [Compound 186, (3-fluoro-3-methylazetidin-1-yl)(4-(4-(1-methyl-1H-pyrazol-4-yl)phenyl)isoquinolin-6-yl)methanone]: 10 to 100 nM; `Cn1cc(-c2ccc(-c3cncc4ccc(S(C)(=O)=O)cc34)cc2)cn1` [Compound 189, 6-Methanesulfonyl-4-[4-(1-methyl-1H-pyrazol-4-yl)-phenyl]-isoquinoline]: 10 to 100 nM.

For the compound `Cn1cc(-c2ccc(-c3cncc4ccc(S(C)(=N)=O)cc34)cc2)cn1` (centres unmarked) [Compound 190, 6-[imino(methane)sulfinyl]-4-[4-(1-methyl-1H-pyrazol-4-yl)phenyl]isoquinoline], the IC50 fell in the range of 10 to 100 nM.

(Values after US20160016951A1 (Merck Patent GmbH, priority 2014, published 2016).)
